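Cells were grown in 96-well plates and exposed to each compound for 48 hours at five concentrations; endpoints were interpolated linearly between bracketing concentrations, or set to the highest concentration if not reached. Abbreviation: GI50, concentration required for 50% inhibition of growth. At the TGI there is no net growth.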

Among the test systems are MDA-MB-435; SK-MEL-2 melanoma; SK-MEL-28 melanoma; MDA-MB-231 breast; UACC-62 melanoma; KM12 colon; OVCAR-5 ovarian; RPMI-8226 leukemia; EKVX NSCLC; MALME-3M melanoma.
What all share (assay): DTP human tumour cell line panel, 48 h

Broadly, the GI50 is the concentration giving 50% growth inhibition. A word on the TGI: it is the concentration giving total growth inhibition. On to `O=C(Nc1ccc(F)cc1)Nc1ccc(Cl)c([N+](=O)[O-])c1`, for which the GI50 was 3.07 µM in the test on MDA-MB-435; 2.32 µM with SK-MEL-2 melanoma; 3.77 µM with SK-MEL-28 melanoma; 2.54 µM in the test with MDA-MB-231 breast; 3.04 µM in the test with UACC-62 melanoma; 3.3 µM with KM12 colon. The GI50 in the test on OVCAR-5 ovarian is 3.55 µM; in the test on RPMI-8226 leukemia it was 1.89 µM; with EKVX NSCLC, 2.79 µM; in the test with MALME-3M melanoma, 2.37 µM. For the same compound, the TGI in the test with MDA-MB-435 was 11.6 µM; in the test with SK-MEL-2 melanoma it was 5.83 µM; in the test on SK-MEL-28 melanoma, 14.2 µM; with MDA-MB-231 breast it was 6.46 µM; with UACC-62 melanoma, 13.2 µM; in the test with KM12 colon it was 13.8 µM. In addition, the TGI is 14.9 µM in the test with OVCAR-5 ovarian, 8.58 µM in the test on RPMI-8226 leukemia, 11 µM in the test with EKVX NSCLC and 7.2 µM in the test on MALME-3M melanoma.

For `C=C(C)C(OC)C(O)CC1(C)CC(O)CC(C)(C2CCC3OC(C4(C)CCC(Br)C(C)(C)O4)CCC3(C)O2)O1` (centres undefined), the GI50 in the test on MDA-MB-435 was 19.8 µM; in the test on SK-MEL-2 melanoma it was 18.1 µM; in the test with SK-MEL-28 melanoma it was 23.6 µM; in the test on MDA-MB-231 breast, 20.3 µM; in the test on UACC-62 melanoma, 19 µM; in the test on KM12 colon, 17.5 µM. The GI50 was 20.5 µM with OVCAR-5 ovarian, 12.7 µM in the test with RPMI-8226 leukemia, 14.1 µM with EKVX NSCLC and 14.9 µM in the test with MALME-3M melanoma. In addition, the TGI in the test on MDA-MB-435 is 46.3 µM; in the test on SK-MEL-2 melanoma it was 36.5 µM; in the test on SK-MEL-28 melanoma, 50 µM; in the test with MDA-MB-231 breast, 43.8 µM; in the test with UACC-62 melanoma it was 39.5 µM; with KM12 colon, 36.7 µM. For the same compound, the TGI in the test with OVCAR-5 ovarian stood at 38.7 µM; in the test with RPMI-8226 leukemia it was 38.1 µM; with EKVX NSCLC, 34.1 µM; in the test with MALME-3M melanoma, 32.5 µM.

Consider `COc1cc2c(cc1OCCCCN1CCN(CC(=O)Nc3ccc(Cl)cc3C(=O)c3ccccc3Cl)CC1)N=CC1CCCN1C2=O` (centres undefined), for which the GI50 in the test with MDA-MB-435 is 0.188 µM; with SK-MEL-2 melanoma, 0.288 µM; with SK-MEL-28 melanoma, 0.229 µM; with MDA-MB-231 breast, 0.251 µM; in the test with UACC-62 melanoma, 0.186 µM; with KM12 colon, 0.215 µM. In addition, the concentration for 50% growth inhibition (GI50) is 0.324 µM in the test with OVCAR-5 ovarian, 0.0573 µM in the test with RPMI-8226 leukemia, 0.375 µM in the test on EKVX NSCLC and 0.186 µM with MALME-3M melanoma. Also, the TGI with MDA-MB-435 worked out at 0.367 µM; in the test on SK-MEL-2 melanoma, 0.869 µM; with SK-MEL-28 melanoma, 0.453 µM; with MDA-MB-231 breast, 0.759 µM; with UACC-62 melanoma it was 0.355 µM; with KM12 colon, 0.497 µM. Besides, the TGI in the test with OVCAR-5 ovarian is 0.939 µM; in the test with RPMI-8226 leukemia, 0.173 µM; in the test with EKVX NSCLC it was 1.07 µM; in the test on MALME-3M melanoma, 0.346 µM.

On to `C=CCO[C@H]1CO[C@H]2[C@@H]1OC[C@@H]2Oc1ccc(Nc2ccnc(Nc3ccc(O[C@H]4CO[C@H]5[C@@H]4OC[C@@H]5OCC=C)c(Cl)c3)n2)cc1Cl`, for which the GI50 with MDA-MB-435 was 1.67 µM; in the test with SK-MEL-2 melanoma, 2.29 µM; in the test with SK-MEL-28 melanoma, 1.73 µM; in the test on MDA-MB-231 breast, 1.69 µM; with UACC-62 melanoma it was 1.81 µM; in the test with KM12 colon, 1.65 µM. Also, the values for the GI50 in the test with OVCAR-5 ovarian, with EKVX NSCLC and in the test on MALME-3M melanoma were 1.83 µM, 1.69 µM and 1.54 µM, respectively. Further, the TGI in the test on MDA-MB-435 worked out at 3.06 µM; in the test on SK-MEL-2 melanoma, 5.31 µM; with SK-MEL-28 melanoma, 3.16 µM; with MDA-MB-231 breast, 3.23 µM; in the test on UACC-62 melanoma it was 3.32 µM; in the test with KM12 colon, 3.08 µM. Moreover, the values for the TGI in the test on OVCAR-5 ovarian, in the test on EKVX NSCLC and with MALME-3M melanoma were 3.29 µM, 3.15 µM and 2.91 µM, respectively.

With `Cc1ccc(Cl)c2c(N=Nc3ccccc3[N+](=O)[O-])c(O)[nH]c12`, the TGI was 35.3 µM with MDA-MB-435; above 100 µM in the test with SK-MEL-2 melanoma; above 100 µM with SK-MEL-28 melanoma; above 100 µM in the test with MDA-MB-231 breast; above 100 µM in the test on UACC-62 melanoma; above 100 µM with KM12 colon. The TGI with OVCAR-5 ovarian, in the test with RPMI-8226 leukemia, in the test on EKVX NSCLC and with MALME-3M melanoma was above 100 µM each time.

As for `COc1cc(/C=N\NC(=O)CN2CCN(c3cc4c(cc3F)c(=O)c(C(=O)N/N=C/c3cc(OC)c(OC)c(OC)c3)cn4C3CC3)CC2)cc(OC)c1OC`, the GI50 is 0.237 µM with MDA-MB-435; 0.204 µM with SK-MEL-2 melanoma; 0.359 µM in the test with SK-MEL-28 melanoma; 0.25 µM in the test with MDA-MB-231 breast; 0.231 µM in the test with UACC-62 melanoma; 0.489 µM in the test with OVCAR-5 ovarian. In addition, the results for the GI50 with RPMI-8226 leukemia and in the test on MALME-3M melanoma were 0.299 µM and 0.235 µM, respectively. The TGI in the test with MDA-MB-435 was 0.559 µM; in the test with SK-MEL-2 melanoma, 0.513 µM; in the test on SK-MEL-28 melanoma, above 19.8 µM; with MDA-MB-231 breast it was 0.781 µM; with UACC-62 melanoma it was 0.583 µM; in the test with OVCAR-5 ovarian, above 62.4 µM. Further, the TGI was above 100 µM in the test with EKVX NSCLC and 0.712 µM with MALME-3M melanoma.

On to `Fc1[nH]nc2ccc([C@@H]3Nc4ccc5[nH]ncc5c4[C@H]4C5CCC(C5)[C@@H]34)cc12` (some centres undefined), for which the GI50 was 0.286 µM in the test with MDA-MB-435; 0.913 µM in the test with SK-MEL-2 melanoma; 1.54 µM with SK-MEL-28 melanoma; 1.97 µM with MDA-MB-231 breast; 0.849 µM with UACC-62 melanoma; 0.559 µM in the test on KM12 colon. Moreover, the GI50 was 3.06 µM in the test on OVCAR-5 ovarian, 1.42 µM with RPMI-8226 leukemia, 2.39 µM with EKVX NSCLC and 11.6 µM in the test with MALME-3M melanoma. In addition, the TGI in the test on MDA-MB-435 came out at 1.08 µM; in the test with SK-MEL-2 melanoma, 12.2 µM; in the test on SK-MEL-28 melanoma, 16.2 µM; in the test on MDA-MB-231 breast, 17.5 µM; in the test with UACC-62 melanoma, 13.2 µM; in the test with KM12 colon it was 11.5 µM. Also, the TGI in the test with OVCAR-5 ovarian came to 14.6 µM; with RPMI-8226 leukemia, 16.7 µM; with EKVX NSCLC, 17.4 µM; in the test on MALME-3M melanoma it was 26 µM.

On to `Cc1ccsc1C(=S)Nc1ccc(Cl)c(/C=N/OC(C)(C)C)c1`, for which the TGI was above 100 µM in the test on MDA-MB-435; above 100 µM in the test with SK-MEL-2 melanoma; above 100 µM with SK-MEL-28 melanoma; 69.9 µM with MDA-MB-231 breast; above 100 µM in the test with UACC-62 melanoma; above 100 µM in the test on KM12 colon. In addition, the TGI with OVCAR-5 ovarian, in the test on RPMI-8226 leukemia, in the test on EKVX NSCLC and in the test with MALME-3M melanoma was above 100 µM each time.
